Like-named read-outs stand apart in the source and are kept apart here.
Tests used:
[1] = tested on: KLF15 promoter with mutation in the GRE (pEZX-FR03hKLF5p-mutant podocytes); assay: GR-mutant KLF15 reporter assay; type: cell-based, human; details: as compared to DMSO
[2] = tested on: human podocytes; assay: Cell viability of podocytes (renilla activity, MTS assay); type: cell-based; details: for toxicity to human podocytes: analogue screen; for renilla activity in dose-response: higher doses (10^4 nM), relative to DMSO
Method: (§1) Differentiated pEZX-FR03hKLF5p human podocytes were treated with 25 μg/ml lipopolysaccharide (LPS) or vehicle and 1 μM KLF15 agonist or vehicle control for 24 hours. Firefly and renilla luciferase assay were measured initially to determine relative KLF15 reporter activity.
(§2) Differentiated pEZX-FR03hKLF5p human podocytes were treated with 0.4 μg/ml adriamycin (ADR) or vehicle and 1 μM KLF15 agonist or vehicle control for 24 hours. Firefly and renilla luciferase assay were measured initially to determine relative KLF15 reporter activity.
To assess cell viability, the CellTiter 96® AQueous One Solution Reagent (Promega) was added to the culture media and plates were incubated for 2 hours at 37° C. with 5% CO2.

[3] = tested on: KLF15 promoter (pEZX-FR03hKLF15p human podocytes); assay: KLF15 reporter high-throughput screening assay in human podocytes (firefly/renilla luciferase); type: cell-based; details: for fold induction at 1 µM: Homo sapiens, read-out: Fold Change (KLF15 reporter activity)
Method: Briefly, these podocytes proliferate under permissive conditions (gamma interferon at 33° C.), but differentiate under nonpermissive conditions (37° C.).
The amplified fragment contains MluI and PmeI RE sites and was subcloned into the MluI and PmeI cloning site of the pEZX-FR03 Firefly luciferase (FLuc) and Renilla luciferase (Rluc) reporter cloning vector (GeneCopoeia) to generate pEZX-FR03hKLF15p. Following verification of the sequence by restriction and μsequencing, the pEZX-FR03hKLF15p construct (which contains a puromycin resistance cassette) was transfected into human podocytes followed by selection in puromycin-containing media for 2 weeks. Surviving podocytes clones were pooled together for further analysis.
The library of compounds from the National Cancer Institute (Approved Oncology Drugs Set VI; Natural Products Set III; Diversity Set V; and Mechanistic Diversity Set II) were added to a final concentration of 1 μM in 0.5% DMSO in the low FBS cell culture media (0.2% FBS) using liquid handling system PipetMax (Gilson). After 24 hours incubation at 37° C., the Luc-Pair™ Duo-Luciferase HT Assay Kit (GeneCopoeia LF015) were used and firefly and renilla luciferase activity was determined using the SpectraMax M3 (Molecular Devices). Positive controls were all-trans retinoic acid (atRA) (1 μM) and dexamethasone (DEX) (1 μM). Negative controls were DMSO and cell-free media.
(§3) To identify small molecule inducers of KLF15 expression in human podocytes, human podocytes were generated with a dual reporter, firefly luciferase directed at the KLF15 promoter region and renilla luciferase (pEZX-FR03hKLF15p). […] The positive controls were inducers of KLF15 expression, dexamethasone (DEX) and all-trans retinoic acid (atRA), and […] and cell-free wells served as negative controls.

[4] = tested on: KLF15 promoter (pEZX-FR03hKLF5p human podocytes); assay: Lipopolysaccharide treatment in human podocytes, KLF15 reporter activity; type: cell-based; details: as compared to DMSO
Method: as §1

[5] = tested on: KLF15 promoter (pEZX-FR03hKLF5p human podocytes); assay: Adriamycin treatment in human podocytes, KLF15 reporter activity; type: cell-based; details: as compared to DMSO-treated podocytes
Method: as §2

[6] = tested on: FVB/n mice; assay: LPS-induced proteinuric murine model; type: in vivo, mouse; details: LPS proteinuric murine model, concurrent treatment, vs DMSO
Method: In the LPS-induced proteinuric model, all 8-week-old FVB/n mice were initially treated with LPS [intraperitoneal (IP), 10 μg/g, Sigma-Aldrich] or sterile normal saline (IP) at 0- and 24-hour time points as previously described (17). […] Urine was collected and mice were euthanized 48 hours post-LPS treatment.
Urine albumin was quantified by ELISA using a kit from Bethyl Laboratory Inc. Urine creatinine levels were measured in the same samples using the Creatinine Colorimetric Assay Kit (500701; Cayman Chemical) as per manufacturer's protocol.
Briefly, mice were perfused with PBS containing 2.5 mg/ml iron oxide and 1% BSA. At the end of perfusion, kidneys were removed, decapsulated, minced into 1 mm^3 pieces, and digested in PBS containing 1 mg/ml collagenase A. Digested tissue was subsequently passed through a 100 μm cell strainer and collected by centrifugation. The pellet was resuspended in 1 ml PBS and glomeruli were collected using a magnet. The purity of glomeruli was verified under microscopy. Total RNA was isolated from kidney glomeruli of mice using the RNeasy Kit (Qiagen, Germantown, MD).
(§4) Total RNA from cells was extracted by using TRIzol (Life Technologies). First-strand cDNA was prepared from total RNA (up to 1.25 μg) using the SuperScript™ IV VILO™ Master Mix (Life Technologies), and cDNA was amplified in triplicate using PowerUp™ SYBR™ Green Master Mix on an ABI QuantStudio3 (Applied Biosystems). Primers for human and mouse genes were designed using NCBI Primer-BLAST and validated for efficiency before application (Table 1). Data were normalized to housekeeping genes (GAPDH or ACTB) and presented as a fold increase compared with RNA isolated from the control group using the ΔΔCT method.
Transmission Electron Microscopy (TEM) was done in the Central Microscopy Imaging Center at Stony Brook Medicine. Briefly, after embedding the kidney tissues in epoxy resin, ultrathin sections were stained with uranyl acetate and lead citrate, then mounted on a copper grid, and photographed under a FEI BioTwin G2 Transmission Electron Microscope with AMT XR-60 CCD digital Camera (FEI).

[7] = tested on: KLF15 and Synaptopodin expression; assay: Real-time PCR of KLF15 and synaptopodin in podocytes under LPS; type: cell-based, human; details: podocytes under LPS conditions, vs DMSO
Method: as §4

[8] = tested on: differentiated human podocytes; assay: Actin stress fiber formation and KLF15 immunocytochemistry; type: cell-based; details: LPS-treated podocytes
Method: To determine actin stress fiber formation, differentiated human podocytes were treated with 25 μg/ml LPS or vehicle and 1 μM KLF15 agonist or vehicle control for 24 hours. Subsequently, podocytes were fixed and stained for F-actin using Alexa Fluor 647 Phalloidin (Life Technologies). Fixation, permeabilization, and staining with phalloidin were performed as per the manufacturer's protocol. […] Briefly, phalloidin staining pattern in each cell was classified into the following types: Type A (90% of cell area filled with thick cables), Type B (no thick cables but some cables present), and Type C (no cables visible in the central area of the cell). Unless specified, 100-200 cells were quantified in a blinded manner for each group in three independent experiments.
Differentiated human podocytes were initially washed with phosphate-buffered saline (PBS) and subsequently fixed with 3.7% formaldehyde in the growth medium. Podocytes were washed and permeabilized with 0.25% Triton X-100, and then blocked in 10% normal horse serum (NHS) and incubated with rabbit anti-KLF15 antibody overnight. The next day, cells were washed with PBS and incubated in Donkey anti-Rabbit IgG (H+L) Secondary Antibody, Alexa Fluor™ 568 (Invitrogen) in 10% NHS. Subsequently, cells were washed and incubated with Hoechst (Thermo Fisher Scientific) before mounting.

[9] = tested on: KLF15 promoter (pEZX-FR03hKLF15p human podocytes); assay: Half maximal effective concentration (EC50) of KLF15 reporter activity; type: cell-based; details: KLF15 reporter activity, dose-response, read-out: EC50
Method: The EC50 was determined using nonlinear regression and then choosing the equation of Sigmoidal function, 4PL method (X is log(concentration); or the equation of log(agonist) vs. response—variable slope).
as §3

[10] = as compared to DMSO-treated podocytes
[11] = NCI library hits, 1 μM, 24 hours

Row | Structure (SMILES) | KLF15-mutant reporter activity [1] | KLF15 activity in the setting of LPS treatment [4] | KLF15 activity in the setting of adriamycin (ADR) [5] | EC50 ([9]; Homo sapiens) [nM] | fold induction at 1 µM [3, 11] | also measured
1 | CSc1ccc(NC(=O)c2ccc(O)cc2)cc1 [BT501] | induced KLF15 activity | maintained the elevated KLF15 activity | – | – | – | toxicity to human podocytes [2]: no observed toxicity; KLF15 activity as compared to DEX-treated podocytes [3]: higher KLF15 activity
2 | CSc1ccc(NC(=O)Nc2ccc(C#N)cn2)cc1 [BT502] | induced KLF15 activity | maintained the elevated KLF15 activity | – | – | – | toxicity to human podocytes [2]: no observed toxicity; renilla activity (cell viability) in the setting of LPS treatment [2, 10]: restored renilla activity; KLF15 activity as compared to DEX-treated podocytes [3]: higher KLF15 activity
3 | CSc1ccc(NC(=O)Nc2cc(C)ccn2)cc1 [C-7, 1-(4-Methylpyridin-2-yl)-3-(4-methylsulfanylphenyl)urea] | induced similar KLF15 activity | maintained KLF15 activity | induced KLF15 activity | 11.9 | 3.17 | albuminuria [6]: significantly abrogated albuminuria; KLF15 and Synaptopodin expression [7]: restored; KLF15 expression and actin stress fiber formation (immunostaining) [8]: restored KLF15 expression and actin stress fiber formation; cell viability (renilla activity and MTT assay) in the setting of ADR [2, 10]: maintained; renilla activity in dose-response [2]: significant increase in renilla activity
4 | Nc1ccccc1-n1nc2ccc3ccccc3c2n1 [C-9, 2-benzo[e]benzotriazol-2-ylaniline] | induced similar KLF15 activity | – | induced KLF15 activity | 76.3 | 2.72 | –
5 | O=C(Nc1ccc2ccccc2c1)c1ccc(Cl)cc1Cl [C-15, 2,4-dichloro-N-(naphthalen-2-yl)benzamide] | induced similar KLF15 activity | – | induced KLF15 activity | 10.9 | 2.97 | –
6 | Cc1ccc(NNC2=C3N=NN=C3C=CC2=O)cc1 [C-43, 4-[2-(4-methylphenyl)hydrazinyl]benzotriazol-5-one] | – | – | – | 866 | 2.57 | –
7 | COc1cccc(C=Cc2nccc3ccccc23)c1OC [C-44] | – | – | – | – | – | EC50 [9]: ~1840 nM; Fold Change (KLF15 reporter activity) [3, 11]: 2.5631 fold
8 | C[C@@H]1C[C@H]2[C@@H]3CCC4=CC(=O)C=C[C@]4(C)[C@@]3(F)[C@@H](O)C[C@]2(C)[C@@]1(O)C(=O)CO [DEX, dexamethasone, reference compound] | – | – | – | – | – | renilla activity in dose-response [2]: trend towards lower renilla activity
